This note sets out measurements from patent US11242337B2, “Compounds useful for treating gastrointestinal tract disorders” (Ardelyx, Inc., priority 2017, dated 2022).

As usually defined, the inhibition is how much of the control response was suppressed. A low value points to a weak effect.

Like-named read-outs stand apart in the source and are kept apart here. Bounds are passed on as bounds.

The test system of experiment [1] is human ileum monolayer culture. Briefly: Sustained inhibition of apical acid secretion in human organoid monolayer cell cultures (ileum). Conditions: 1 μM apical, dosed day 6, apical media pH day 8, vs DMSO; for inhibition at 1 µM: Homo sapiens, 48 h. The class given is cell-based. On the procedure: (§1) Basal media (BM) consisted of advanced DMEM/F12 containing 10 mM HEPES Invitrogen, 15630-080), 1:100 Glutamax (Invitrogen, 35050-061), and 1:100 penicillin/streptomycin (Invitrogen, 15140-122). Supplemented basal media (SBM) contained 1:100 N2 (Invitrogen, 17502-048), 1:50 B27 (Invitrogen, 12587-010), 1 mM N-acetylcysteine (Sigma, A9165), and 10 nM [Leu15]-gastrin I (Sigma, G9145). Growth factors used included 50 ng per mL mouse EGF (Peprotech, 315-09), 100 ng per mL mouse noggin (Peprotech, 250-38), 500 ng per mL human R-spondin 1 (R&D, 4645-RS), 100 ng per mL mouse Wnt-3a (R&D, 1324-WN), 20 μM. Y-27632 (Tocris, 1254), 10 mM nicotinamide (Sigma, N0636), 500 nM A83-01 (Tocris, 2939), 10 μM SB202190 (Tocris, 1264). Transwells were 0.4 μm pore polyester membrane 24-well Transwell inserts (Corning). Cultures were incubated at 37° C. in 5% CO2.
(§2) Human ileum organoids were cultured in WENRNAS (Wnt, EGF, noggin, R-spondin1, Nicotinamide, A83-01, SB202190) and typically grown for 7-12 days before being used to plate monolayer cultures. On day 0, organoid cultures embedded in Matrigel were treated with TrypLE Express to break organoids into small pieces and/or single cells. The cells were resuspended to 0.5×10^6 cells/mL in SBM containing WENRAY (Wnt, EGF, noggin, R-spondin1, A83-01, Y-27632). Following this step, 200 μL of cell suspension was plated into the apical side of a 24-well Transwell (100,000 cells/well) and 600 μL of SBM with WENRAY was added to the basolateral side. Ileum cells were differentiated with ENRA (EGF, noggin, R-spondin 1, A83-01) on day 3. The color of apical compartment turns from pink or orange to yellow due to the increase in NHE3 expression after differentiation.
Each human ileum monolayer culture well was washed twice with fresh SBM on the apical side on day 6 before compound dosing. All compound stocks were 10 mM dissolved in DMSO. Each compound stock was individually mixed with fresh SBM to reach final compound concentration 1 μM and dosed only on the apical side of the monolayer (total volume 200 μl). DMSO at the equivalent concentration was used as the vehicle control. Duplicate wells were dosed for each compound. On day 8, apical media pH was measured by pH electrode, to determine the ability of example compounds to produce sustained inhibition of NHE3 activity in a human monolayer culture system by preventing proton secretion into the apical compartment.

Experiment [2] concerns human duodenum monolayer culture. Briefly: Increased trans-epithelial resistance (TEER) in human organoid monolayer cell cultures. The class given is cell-based. The note with it: 1 μM apical, baseline corrected. On the procedure:
as §1, with “media (B” for “media (BM)”, “HEPES (Invitrogen,” for “HEPES Invitrogen,”, “20 μM” for “20 μM.”
as §2, with “Human duodenum” for “Human ileum”, “side. Duodenum” for “side. Ileum”, “with ENA” for “with ENRA”, “noggin,” for “noggin, R-spondin 1,”
Each human duodenum monolayer culture well was washed twice with fresh SBM on the apical side on day 6 or day 7 before dosing. All compound stocks were 10 mM dissolved DMSO. Each compound stock was individually mixed with fresh SBM to reach final compound concentration 1 μM and dosed only on the apical side of the monolayer (total volume 200 μl). DMSO at the equivalent concentration was used as the vehicle control. Duplicate wells were dosed for each compound. Transepithelial electrical resistance (TEER) was used as a quantitative technique to measure of tight junction permeability. TEER values were recorded (MERS00002, Millipore) before dosing and 30 mins and 1 hr after dosing for all wells. Each of the duplicate TEER values following treatment were corrected for the individual well baseline TEER. Baseline corrected TEER for each example compound was compared to the average of the DMSO wells and expressed as a percent TEER of vehicle control.

Turning to “3-[2-(2-[2-[(4-[[(1S,2S)-4,6-Dichloro-2-[(3R)-3-[methyl(propan-2-yl)amino]piperidin-1-yl]-2,3-dihydro-1H-inden-1-yl]oxy]benzene) sulfonamido]ethoxy]ethoxy)ethyl]-1-[4-([[2-(2-[2-[(4-[[(1S,2S)-4,6-dichloro-2-[(3R)-3-[methyl(propan-2-yl)amino]piperidin-1-yl]-2,3-dihydro-1H-inden-1-yl]oxy]benzene)sulfonamido]ethoxy]ethoxy)ethyl]carbamoyl]amino)butyl]urea; bis(trifluoroacetic acid) [Example 78]”, the “% inhibition (ileum)” value in experiment [1] is listed as “C (>70%)”.

In experiment [1], `CN(C)[C@H]1Cc2c(Cl)cc(Cl)cc2[C@@H]1Oc1ccc(S(=O)(=O)NCCOCCOCCNC(=O)NCCCCNC(=O)NCCOCCOCCNS(=O)(=O)c2ccc(O[C@H]3c4cc(Cl)cc(Cl)c4C[C@@H]3N(C)C)c(F)c2)cc1F` [Example 23, 3-[2-(2-[2-[(4-[[(1S,2S)-4,6-Dichloro-2-(dimethylamino)-2,3-dihydro-1H-inden-1-yl]oxy]-3-fluorobenzene)sulfonamido]ethoxy]ethoxy)ethyl]-1-[4-([[2-(2-[2-[(4-[[(1S,2S)-4,6-dichloro-2-(dimethylamino)-2,3-dihydro-1H-inden-1-yl]oxy]-3-fluorobenzene)sulfonamido]ethoxy]ethoxy)ethyl]carbamoyl]amino)butyl]urea; bis(trifluoroacetic acid)] yielded an inhibition at 1 µM of 50 to 70%.

In turn, `Cc1cc(S(=O)(=O)NCCOCCOCCNC(=O)NCCCCNC(=O)NCCOCCOCCNS(=O)(=O)c2ccc(O[C@H]3c4cc(Cl)cc(Cl)c4C[C@@H]3N3CCC[C@@H](N(C)C)C3)c(C)c2)ccc1O[C@H]1c2cc(Cl)cc(Cl)c2C[C@@H]1N1CCC[C@@H](N(C)C)C1` [Example 26, 3-[2-(2-[2-[(4-[[(1S,2S)-4,6-Dichloro-2-[(3R)-3-(dimethylamino)piperidin-1-yl]-2,3-dihydro-1H-inden-1-yl]oxy]-3-methylbenzene)sulfonamido]ethoxy]ethoxy)ethyl]-1-[4-([[2-(2-[2-[4-[[(1S,2S)-4,6-dichloro-2-[(3R)-3-(dimethylamino)piperidin-1-yl]-2,3-dihydro-1H-inden-1-yl]oxy]-3-methylbenzenesulfonamido]ethoxy]ethoxy)ethyl]carbamoyl]amino)butyl]urea; bis(trifluoroacetic acid)] had an inhibition at 1 µM in experiment [1] of 50 to 70%.

The compound `Cc1cc(Cl)cc2c1C[C@H](N1CCC[C@@H](N(C)C)C1)[C@H]2Oc1ccc(S(=O)(=O)NCCOCCOCCNC(=O)NCCCCNC(=O)NCCOCCOCCNS(=O)(=O)c2ccc(O[C@H]3c4cc(Cl)cc(C)c4C[C@@H]3N3CCC[C@@H](N(C)C)C3)cc2)cc1` [Example 28, 3-[2-(2-[2-[(4-[[(1S,2S)-6-Chloro-2-[(3R)-3-(dimethylamino)piperidin-1-yl]-4-methyl-2,3-dihydro-1H-inden-1-yl]oxy]benzene)sulfonamido]ethoxy]ethoxy)ethyl]-1-[4-([[2-(2-[2-[(4-[[(1S,2S)-6-chloro-2-[(3R)-3-(dimethylamino)piperidin-1-yl]-4-methyl-2,3-dihydro-1H-inden-1-yl]oxy]benzene)sulfonamido]ethoxy]ethoxy)ethyl]carbamoyl]amino)butyl]urea; bis(trifluoroacetic acid)] had an inhibition at 1 µM in experiment [1] of 50 to 70%.

`Cc1cc(S(=O)(=O)NCCOCCOCCNC(=O)NCCCCNC(=O)NCCOCCOCCNS(=O)(=O)c2ccc(O[C@H]3c4cc(Cl)cc(C)c4C[C@@H]3N3CCC[C@@H](N(C)C)C3)c(C)c2)ccc1O[C@H]1c2cc(Cl)cc(C)c2C[C@@H]1N1CCC[C@@H](N(C)C)C1` [Example 29] had an inhibition at 1 µM in experiment [1] greater than 70%.

On to `Cc1cc(Cl)cc2c1C[C@H](N1CCC[C@@H](N(C)C)C1)[C@H]2Oc1ccc(S(=O)(=O)NCCOCCOCCNC(=O)NCCCCNC(=O)NCCOCCOCCNS(=O)(=O)c2ccc(O[C@H]3c4cc(Cl)cc(C)c4C[C@@H]3N3CCC[C@@H](N(C)C)C3)c(F)c2)cc1F` [Example 30, 3-[2-(2-[2-[(4-[[(1S,2S)-6-Chloro-2-[(3R)-3-(dimethylamino)piperidin-1-yl]-4-methyl-2,3-dihydro-1H-inden-1-yl]oxy]-3-fluorobenzene)sulfonamido]ethoxy]ethoxy)ethyl]-1-[4-([[2-(2-[2-[(4-[[(1S,2S)-6-chloro-2-[(3R)-3-(dimethylamino)piperidin-1-yl]-4-methyl-2,3-dihydro-1H-inden-1-yl]oxy]-3-fluorobenzene)sulfonamido]ethoxy]ethoxy)ethyl]carbamoyl]amino)butyl]urea; bis(trifluoroacetic acid)], for which the activity at 1 µM in experiment [2] (1 hr after dosing, read-out: TEER at 60 minutes (% of Vehicle)) was 100 to 130%; in experiment [2] (0.5 h, 30 mins after dosing, read-out: TEER at 30 minutes (% of Vehicle)), 100 to 130%.

`Cc1cc(Cl)cc2c1C[C@H](N1CCNCC1)[C@H]2Oc1ccc(S(=O)(=O)NCCOCCOCCNC(=O)NCCCCNC(=O)NCCOCCOCCNS(=O)(=O)c2ccc(O[C@H]3c4cc(Cl)cc(C)c4C[C@@H]3N3CCNCC3)cc2)cc1` [Example 34, 3-[2-(2-[2-[(4-[[(1S,2S)-6-Chloro-4-methyl-2-(piperazin-1-yl)-2,3-dihydro-1H-inden-1-yl]oxy]benzene)sulfonamido]ethoxy]ethoxy)ethyl]-1-[4-([[2-(2-[2-[(4-[[(1S,2S)-6-chloro-4-methyl-2-(piperazin-1-yl)-2,3-dihydro-1H-inden-1-yl]oxy]benzene)sulfonamido]ethoxy]ethyl)ethyl]carbamoyl]amino)butyl]urea; bis(trifluoroacetic acid)] displayed an inhibition at 1 µM in experiment [1] of 50 to 70%.

`Cc1cc(S(=O)(=O)NCCOCCOCCNC(=O)NCCCCNC(=O)NCCOCCOCCNS(=O)(=O)c2ccc(O[C@H]3c4cc(Cl)cc(C)c4C[C@@H]3N3CCNCC3)c(C)c2)ccc1O[C@H]1c2cc(Cl)cc(C)c2C[C@@H]1N1CCNCC1` [Example 35, 3-[2-(2-[2-[(4-[[(1S,2S)-6-Chloro-4-methyl-2-(piperazin-1-yl)-2,3-dihydro-1H-inden-1-yl]oxy]-3-methylbenzene)sulfonamido]ethoxy]ethoxy)ethyl]-1-[4-([[2-(2-[2-[(4-[[(1S,2S)-6-chloro-4-methyl-2-(piperazin-1-yl)-2,3-dihydro-1H-inden-1-yl]oxy]-3-methylbenzene)sulfonamido]ethoxy]ethoxy)ethyl]carbamoyl]amino)butyl]urea; bis(trifluoroacetic acid)] gave an inhibition at 1 µM in experiment [1] greater than 70%.
